Reference: ChEMBL document CHEMBL4411338, “Convenient framework of poly functionalized (E)-2-benzylideno-(Z)-carbazolylideno cyanoacetamides via rearrangements as an efficient antibiofilm inhibitors with SAR study” (Bioorg Med Chem, 2019)
Calls of active or inactive are those of the source. The calls are words filed in the database; no cut-off is given here.

Experiments:
Bacillus subtilis = assay: Antibiofilm activity against tetracycline-resistant Bacillus subtilis assessed as disruption of biofilm at 200 ug/ml after 24 hrs by crystal violet staining based ELISA relative to control; assay type: functional
Pseudomonas fluorescens = assay: Antibiofilm activity against tetracycline-resistant Pseudomonas fluorescens assessed as disruption of biofilm at 200 ug/ml after 24 hrs by crystal violet staining based ELISA relative to control; assay type: functional
Pseudomonas aeruginosa [1] = assay: Antibiofilm activity against carbenicillin-resistant Pseudomonas aeruginosa assessed as disruption of biofilm at 200 ug/ml after 24 hrs by crystal violet staining based ELISA relative to control; assay type: functional
Klebsiella pneumoniae [2] = assay: Antibiofilm activity against carbenicillin-resistant Klebsiella pneumoniae assessed as disruption of biofilm at 200 ug/ml after 24 hrs by crystal violet staining based ELISA relative to control; assay type: functional
Escherichia coli [3] = assay: Antibiofilm activity against carbapenem-resistant Escherichia coli assessed as disruption of biofilm at 200 ug/ml after 24 hrs by crystal violet staining based ELISA relative to control; assay type: functional
Klebsiella pneumoniae [4] = assay: Antibiofilm activity against tetracycline-resistant Klebsiella pneumoniae assessed as disruption of biofilm at 200 ug/ml after 24 hrs by crystal violet staining based ELISA relative to control; assay type: functional
Priestia megaterium = assay: Antibiofilm activity against ofloxacin-resistant Bacillus megaterium assessed as disruption of biofilm at 200 ug/ml after 24 hrs by crystal violet staining based ELISA relative to control; assay type: functional
Klebsiella pneumoniae [5] = assay: Antibiofilm activity against carbapenem-resistant Klebsiella pneumoniae assessed as disruption of biofilm at 200 ug/ml after 24 hrs by crystal violet staining based ELISA relative to control; assay type: functional
Escherichia coli [6] = assay: Antibiofilm activity against carbenicillin-resistant Escherichia coli assessed as disruption of biofilm at 100 ug/ml after 24 hrs by crystal violet staining based ELISA relative to control; assay type: functional
Escherichia coli [7] = assay: Antibiofilm activity against carbapenem-resistant Escherichia coli biofilm assessed as reactive oxygen species generation at 10 ug/ml after 1 hr by DCFH-DA probe based UV-spectrofluorimetric method relative to control; assay type: functional
Klebsiella pneumoniae [8] = assay: Antibiofilm activity against carbenicillin-resistant Klebsiella pneumoniae assessed as disruption of biofilm at 10 ug/ml by crystal violet/acridine orange staining based fluorescence microscopic analysis; assay type: functional, organism-based
HEK293 [9] = assay: Cytotoxicity against HEK293 cells assessed as reduction in cell viability up to 75 ug/ml after 24 hrs by MTT assay; assay type: cell-based; settings: human, hek293, 24 h
HEK293 [10] = assay: Cytotoxicity against HEK293 cells assessed as reduction in cell viability at >75 ug/ml after 24 hrs by MTT assay; assay type: cell-based; settings: human, hek293, 24 h
Pseudomonas aeruginosa [11] = assay: Antibiofilm activity against carbenicillin-resistant Pseudomonas aeruginosa assessed as disruption of biofilm at 100 ug/ml after 24 hrs by crystal violet staining based ELISA relative to control; assay type: functional
Klebsiella pneumoniae [12] = assay: Antibiofilm activity against tetracycline-resistant Klebsiella pneumoniae assessed as disruption of biofilm at 10 ug/ml by crystal violet/acridine orange staining based fluorescence microscopic analysis; assay type: functional, organism-based
Escherichia coli [13] = assay: Reduction in reactive oxygen species level in carbapenem-resistant Escherichia coli biofilm at 10 ug/ml measured after 2 to 6 hrs by DCFH-DA probe based UV-spectrofluorimetric method; assay type: functional, organism-based
Pseudomonas aeruginosa [14] = assay: Antibiofilm activity against carbenicillin-resistant Pseudomonas aeruginosa assessed as disruption of biofilm at 10 ug/ml by crystal violet/acridine orange staining based fluorescence microscopic analysis; assay type: functional, organism-based
Escherichia coli [15] = assay: Antibiofilm activity against carbenicillin-resistant Escherichia coli assessed as disruption of biofilm at 10 ug/ml by crystal violet/acridine orange staining based fluorescence microscopic analysis; assay type: functional, organism-based
Klebsiella pneumoniae [16] = assay: Antibiofilm activity against tetracycline-resistant Klebsiella pneumoniae assessed as disruption of biofilm at 100 ug/ml after 24 hrs by crystal violet staining based ELISA relative to control; assay type: functional

Compound | inhibition at 200 µg/mL (Bacillus subtilis) | inhibition at 200 µg/mL (Pseudomonas fluorescens) | inhibition at 200 µg/mL (Pseudomonas aeruginosa [1]) | inhibition at 200 µg/mL (Klebsiella pneumoniae [2]) | inhibition at 200 µg/mL (Escherichia coli [3]) | inhibition at 200 µg/mL (Klebsiella pneumoniae [4]) | inhibition at 200 µg/mL (Priestia megaterium) | inhibition at 200 µg/mL (Klebsiella pneumoniae [5]) | inhibition at 100 µg/mL (Escherichia coli [6]) | fold change (FC) (Escherichia coli [7]) | Activity (Klebsiella pneumoniae [8]) | Activity (HEK293 [9]) | Activity (HEK293 [10]) | inhibition at 100 µg/mL (Pseudomonas aeruginosa [11]) | Activity (Klebsiella pneumoniae [12]) | Activity (Escherichia coli [13]) | Activity (Pseudomonas aeruginosa [14]) | Activity (Escherichia coli [15]) | inhibition at 100 µg/mL (Klebsiella pneumoniae [16])
COc1ccc(/C=C2\CCc3c([nH]c4ccc(C)cc34)\C2=C(\C#N)C(N)=O)cc1OC | 21% | 31% | 67% | 82% | 80% | 78% | 17.1% | 78% | 78% |  |  |  |  |  |  |  |  |  | 
COc1ccc(/C=C2\CCc3c([nH]c4cc(C)ccc34)\C2=C(\C#N)C(N)=O)cc1OC | 32% | 5% | 15.3% |  | 17.2% | 18.3% | 10.9% | 12% |  |  |  |  |  |  |  |  |  |  | 
Cc1ccc2[nH]c3c(c2c1)CCC(=C\c1ccccc1)/C3=C(\C#N)C(N)=O | 23% | 31% | 81% |  | 85% | 71% | 21.4% | 71% | 89% | 2 | Active | Non-Toxic | Toxic | 79% | Active | Active | Active | Active | 
Cc1ccc2c3c([nH]c2c1)C(=C(/C#N)C(N)=O)/C(=C/c1ccccc1)CC3 | 45% | 26.4% | 17% |  | 16% | 15.6% | 13.1% | 14% |  |  |  |  |  |  |  |  |  |  | 
O=C(O)c1cn(C2CC2)c2cc(N3CCNCC3)c(F)cc2c1=O [CIPROFLOXACIN] | 23% | 38% | 49.7% |  | 45% | 43% | 56.3% | 25.5% |  |  |  |  |  |  |  |  |  |  | 
Cc1ccc2[nH]c3c(c2c1)CCC(=C\c1ccc(F)cc1)/C3=C(\C#N)C(N)=O | 56% | 11% | 19.3% |  | 13.4% | 0% | 32.4% | 17% |  |  |  |  |  |  |  |  |  |  | 
Cc1ccc2[nH]c3c(c2c1)CCC(=C\c1ccccn1)/C3=C(\C#N)C(N)=O | 26% | 29% | 17% |  | 21.7% | 0% | 18.2% | 32% |  |  |  |  |  |  |  |  |  |  | 
COc1ccc(/C=C2\CCc3c([nH]c4c(C)cccc34)\C2=C(\C#N)C(N)=O)cc1OC | 31% | 0% | 12.5% |  | 84.6% | 23% | 6.1% | 16% |  |  |  |  |  |  |  |  |  |  | 
Cc1cccc2c3c([nH]c12)C(=C(/C#N)C(N)=O)/C(=C/c1ccccc1)CC3 | 23% | 0% | 4.3% |  | 14.6% | 1.9% | 31.4% | 21% |  |  |  |  |  |  |  |  |  |  | 
Cc1ccc2[nH]c3c(c2c1)CCC(=C\c1cccc(F)c1)/C3=C(\C#N)C(N)=O | 10% | 15% | 25.3% |  | 24.8% | 0% | 21.1% | 29% |  |  |  |  |  |  |  |  |  |  | 
Cc1ccc2c3c([nH]c2c1)C(=C(/C#N)C(N)=O)/C(=C/c1cccs1)CC3 | 21% | 28% | 18.9% |  | 9.8% | 3.5% | 15.7% | 18% |  |  |  |  |  |  |  |  |  |  | 
Cc1cccc2c3c([nH]c12)C(=C(/C#N)C(N)=O)/C(=C/c1cccs1)CC3 | 12% | 0% | 24.1% |  | 22.8% | 27.9% | 17.6% | 12% |  |  |  |  |  |  |  |  |  |  | 
Cc1ccc2[nH]c3c(c2c1)CCC(=C\c1cccs1)/C3=C(\C#N)C(N)=O | 28% | 73% | 29.3% |  | 70% | 81% | 4.5% | 74% | 78% |  |  |  |  |  |  |  |  |  | 78%
CCOc1ccc(/C=C2\CCc3c([nH]c4ccc(C)cc34)\C2=C(\C#N)C(N)=O)cc1OCC | 8% | 18% | 29.3% |  | 27.4% | 23.3% | 11.2% | 16% |  |  |  |  |  |  |  |  |  |  | 
Cc1ccc2[nH]c3c(c2c1)CCC(=C\c1cccc(Br)c1)/C3=C(\C#N)C(N)=O | 10% | 12% | 13.2% |  | 33.5% | 28.3% | 6.3% | 20.7% |  |  |  |  |  |  |  |  |  |  | 
